# Experimental data taken from publication PMC10778824, “New Chalcone Derivatives Containing 2,4-Dichlorobenzenesulfonamide Moiety with Anticancer and Antioxidant Properties” (International Journal of Molecular Sciences, 2023).
# How the values were obtained:
# [1] = target: T1, neutrophil elastase (Sus scrofa, UniProt P00772); test: Elastase assay (SANA substrate); assay type: biochemical, porcine; settings: Tris-HCl pH 8.0, SANA substrate; read-out: neutrophil elastase inhibition IC50 (converted)
# T1 construct: purchased Sigma Chemical Co. (St. Louis, MO, USA)
# T1 sequence (P00772 27-266): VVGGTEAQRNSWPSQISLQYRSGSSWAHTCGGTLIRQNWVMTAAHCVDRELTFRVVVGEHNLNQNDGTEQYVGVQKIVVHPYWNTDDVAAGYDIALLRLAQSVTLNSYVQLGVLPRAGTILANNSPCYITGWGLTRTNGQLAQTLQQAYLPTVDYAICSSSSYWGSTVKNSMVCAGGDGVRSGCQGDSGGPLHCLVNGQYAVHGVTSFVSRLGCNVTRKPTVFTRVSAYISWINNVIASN
# Method: The elastase analysis was performed according to the spectrophotometric method with oleanolic acid as a reference. The reaction mixture (Tris-HCl buffer (pH 8.0), 1.0 μg/mL porcine pancreatic elastase, and different concentrations of chalcone derivatives was preincubated at room temperature for 15 min. Afterwards, the addition of the substrate—SANA—started the reaction. Product formation changes were analyzed at λ = 410 nm for 20 min every 20 s (Epoch, BioTek Instruments, Santa Clara, CA, USA). The control was composed of Tris-HCl buffer (pH 8.0), an appropriate concentration of the chalcone derivative, and SANA.
# [2] = system: Helicobacter pylori ATCC43504; test: MIC determination; assay type: cell-based; settings: 37 °C, 48 h
# Method: (§1) The MIC determinations for Staphylococcus epidermidis ATCC14990, Staphylococcus aureus ATCC6538, Enterococcus faecalis ATCC51299, Klebsiella pneumoniae ATCC13883, Escherichia coli ATCC8739, Salmonella enterica ATCC13076, Helicobacter pylori ATCC43504, Campylobacter jejuni ZMF, Campylobacter coli ZMF, Bacillus cereus PCM 1948,2019 (ATCC11778), and Listeria monocytogenes PCM2191 were performed based on the methodology described by Krauze-Baranowska et al.. The procedure for H. pylori was used in the experiments with Campylobacter strains, and the procedure for B. subtilis was used in the experiments with L. monocytogenes and B. cereus. The tested samples were dissolved in DMSO and diluted with water (concentration of approximately 500 μg/mL). The solutions were diluted geometrically by transferring the mixture/dilution (100 μL) from the first to the twelfth well of the microtiter plate. The final concentrations of samples used for antimicrobial effects ranged from 500 to 0.006 µg/mL. Ampicillin was used as a reference compound in the concentration range of 128 to 0.0625 µg/mL. The tests were incubated at 37 °C for 48 h. The diluent concentration had no effect on the activity of the tested compounds. All experiments were performed in triplicate.
# [3] = system: Salmonella enterica ATCC13076; test: MIC determination; assay type: cell-based; settings: 37 °C, 48 h
# Method: as §1
# [4] = system: Listeria monocytogenes PCM2191; test: MIC determination; assay type: cell-based; settings: 37 °C, 48 h
# Method: as §1
# [5] = system: Campylobacter coli ZMF; test: MIC determination; assay type: cell-based; settings: 37 °C, 48 h
# Method: as §1
# [6] = system: Staphylococcus aureus ATCC6538; test: MIC determination; assay type: cell-based; settings: 37 °C, 48 h
# Method: as §1
# [7] = system: Klebsiella pneumoniae ATCC13883; test: MIC determination; assay type: cell-based; settings: 37 °C, 48 h
# Method: as §1
# [8] = system: Enterococcus faecalis ATCC51299; test: MIC determination; assay type: cell-based; settings: 37 °C, 48 h
# Method: as §1
# [9] = system: Campylobacter jejuni ZMF; test: MIC determination; assay type: cell-based; settings: 37 °C, 48 h
# Method: as §1
# [10] = system: Bacillus cereus PCM 1948,2019 (ATCC11778); test: MIC determination; assay type: cell-based; settings: 37 °C, 48 h
# Method: as §1
# [11] = system: Staphylococcus epidermidis ATCC14990; test: MIC determination; assay type: cell-based; settings: 37 °C, 48 h
# Method: as §1
# [12] = system: Escherichia coli ATCC8739; test: MIC determination; assay type: cell-based; settings: 37 °C, 48 h
# Method: as §1
# [13] = β-Carotene bleaching test; settings: compared to ascorbic acid
# Method: β-Carotene bleaching test was based on the method described by Olszowy et al. with some modifications. First, 1 mg of β-carotene was dissolved in 5 mL of chloroform. Afterwards, […] of linoleic acid and 200 mg of Tween 40 were added. The chloroform was evaporated, and 50 mL of oxygenized water was added. The created emulsion was mixed with different concentrations of chalcone derivatives. β-carotene bleaching was analyzed at λ = 492 nm before (t = 0 min) and after 90 min (t = 90 min) of incubation at 50 °C (Epoch, BioTek Instruments, Santa Clara, CA, USA). Ascorbic acid was used as a standard. The control was composed of emulsion and DMSO.
# The results were calculated according to the following Formula (4):[(AsampleT0 − AsampleT90)/(AcontrolT0 − AcontrolT90) × 100%(4)
# [14] = system: gastric adenocarcinoma AGS; test: MTT assay, AGS cells; assay type: cell-based, human; settings: for IC50: Homo sapiens, AGS, 24 h, MTT, 24 h treatment; for selectivity index AGS: SI = IC50 noncancer cells/IC50 cancer cells, in relation to human neonatal fibroblasts
# Method: (§2) The human gastric adenocarcinoma AGS, cervical cancer HeLa, and acute promyelocytic leukemia HL-60 cells were obtained from the American Type Culture Collection (ATCC, Manassas, VA, USA). Human neonatal fibroblasts were obtained from LGC Standards (Luckenwalde, Germany). The HeLa and AGS lines were cultured in Dulbecco’s modified Eagle’s medium (DMEM) and DMEM/F12 medium, respectively. The HL-60 line was maintained in RPMI-1640 medium. Fibroblasts were cultured in Fibroblast Growth Medium with Supplement Mix. All the media were supplemented with 100 units/mL of penicillin, 100 µg/mL of streptomycin, and 10% (v/v) fetal bovine serum (FBS) (Merck Millipore, Burlington, MA, USA). The cells were incubated at 37 °C and 5% CO2.
# (§3) To estimate the cytotoxic effect of the five compounds (4–8), MTT (3-(4,5-dimethylthiazol-2-yl)-2,5-diphenyltetrazolium bromide) assay was used. Oxaliplatin was used as a positive control in this test. All the cell lines were seeded in 96-well plates at a density of 5 × 10^3 cells/well and treated for 24 h with the compounds at concentrations of 0.5–40 µg/mL. Oxaliplatin was tested in the range of 20–400 µg/mL (50–1000 µM). After treatment, the cells were incubated with MTT (0.5 mg/mL; Merck Millipore, Burlington, MA, USA) for 3 h. Then, DMSO was used to dissolve formazan crystals, and the absorbance of the formazan solution was measured with a plate reader (Epoch, BioTek Instruments, Santa Clara, CA, USA). All the results (±standard deviation (SD)) were obtained from six repetitions in at least two independent experiments. The data are expressed as IC50 values (µg/mL).
# [15] = system: cancer cells (HeLa, HL-60, AGS); test: MTT assay, cancer cells taken together; assay type: cell-based, human; settings: HL-60 and AGS together
# Method: as §2, §3
# [16] = system: human neonatal fibroblasts; test: MTT assay, noncancerous fibroblasts; assay type: cell-based; settings: Homo sapiens, Fibroblast, 24 h treatment
# Method: as §2, §3
# [17] = DPPH radical scavenging assay; settings: concentration of 800 µg/mL
# Method: The DPPH radical scavenging assay of samples (ligands or complexes) was performed with ascorbic acid as a standard. Different concentrations of chalcone derivatives, dissolved in DMSO, were mixed with the same amount of 0.06 mM DPPH methanolic solution and incubated at room temperature in the dark for 30 min. The absorbance was analyzed at λ = 517 nm using a 96-well microplate reader (Epoch, BioTek System, Winooski, VT, USA). The control was composed of DPPH and DMSO. DPPH inhibition was calculated according to the following Formula (2):DPPH Inhibition (%) = [(Acontrol − Asample)/Acontrol] × 100%(2)
# [18] = system: acute promyelocytic leukemia HL-60; test: MTT assay, HL-60 cells; assay type: cell-based, human; settings: for IC50: Homo sapiens, HL-60, 24 h, MTT, 24 h treatment; for selectivity index HL-60: SI = IC50 noncancer cells/IC50 cancer cells, in relation to human neonatal fibroblasts
# Method: as §2, §3
# [19] = system: cervical cancer HeLa; test: MTT assay, HeLa cells; assay type: cell-based, human; settings: for IC50: Homo sapiens, HeLa, MTT, 24 h treatment; for selectivity index HeLa: SI = IC50 noncancer cells/IC50 cancer cells, in relation to human neonatal fibroblasts
# Method: as §2, §3
Compound,IC50 [1] [µM],MIC [2] [µg/mL],MIC [3] [µg/mL],MIC [4] [µg/mL],MIC [5] [µg/mL],MIC [6] [µg/mL],MIC [7] [µg/mL],MIC [8] [µg/mL],MIC [9] [µg/mL],MIC [10] [µg/mL],MIC [11] [µg/mL],MIC [12] [µg/mL],IC50 [14] [µg/mL],selectivity index AGS [14],IC50 toward cancer cells [15],IC50 [16] [µg/mL],% of DPPH radical inhibition [17] [%],IC50 [18] [µg/mL],selectivity index HL-60 [18],IC50 [19] [µg/mL],other results
"Cc1cc(S(=O)(=O)Nc2ccc(C(=O)/C=C/c3ccccc3)cc2)c(Cl)cc1Cl [Compound 4, (E)-2,4-Dichloro-N-(4-Cinnamoylphenyl)-5-Methylbenzenesulfonamide]",119,> 500,> 500,> 500,> 500,> 500,> 500,> 500,> 500,> 500,> 500,> 500,1.23 ± 0.23,26.14,weaker activity,32.1 ± 2.91,19.49 ± 0.38,2.37 ± 0.23,13.57,9.63 ± 0.06,protection of lipids oxidation / reduction of lipid peroxidation (in words) [13]: weaker properties; selectivity index HeLa [19]: 3.34
"Cc1cc(S(=O)(=O)Nc2ccc(C(=O)/C=C/c3ccc(F)cc3)cc2)c(Cl)cc1Cl [Compound 6, (E)-2,4-Dichloro-N-{4-[3-(4-Fluorophenyl)acryloyl]phenyl}-5-Methylbenzenesulfonamide]",181,> 500,> 500,> 500,> 500,> 500,> 500,> 500,> 500,> 500,> 500,> 500,4.49 ± 0.44,6.01,weaker activity,27 ± 2.29,21.85 ± 0.22,1.69 ± 0.2,15.98,8.65 ± 0.52,selectivity index HeLa [19]: 3.12
